These results are taken from publication PMC9569914, “Unique Structural Fold of LonBA Protease from Bacillus subtilis, a Member of a Newly Identified Subfamily of Lon Proteases” (International Journal of Molecular Sciences, 2022).

The target in one series is T1, EcLonA (Escherichia coli, UniProt P0A9M0).
T1 construct: gene lon; EcLonA-H6 (C-terminal hexahistidine tag)
The experiment in a line: inhibition of PepTBE hydrolysis (peptidase assay, DTDP detection); also suppresses β-casein proteolysis. The series is classed as biochemical.

A further series addresses T2, BsLonBA (Bacillus subtilis, UniProt P42425).
T2 construct: gene lon2; P domain, residues 347–552 (crystal); full-length BsLonBA-H6 (IC50)
The experiment in a line: IC50 from PepTBE peptidase assay of full-length enzyme. It counts as biochemical.

Series [1] deals with the molecule itself. The experiment in a line: SEC; HiPrep 26/60 Sephacryl S-200 HR sizing column before crystallization, 25 mM Tris pH 7.5, 200 mM NaCl, 2 mM TCEP, 4-8 °C; no bortezomib. For orientation: Size exclusion chromatography separates by hydrodynamic size, large species first.
Series [2] concerns the molecule itself. The series can be described thus: crystal structure; P domain with bortezomib (molar ratio 1:6), 10 mM MgCl2, hanging drop, 35% PEG400 pH 7.8; space group P6_(3), two molecules in the asymmetric unit, hexamer by the crystallographic 3-fold axis; 1.9 Å.

T2 sequence (P42425 whole entry, the tested form may be a part): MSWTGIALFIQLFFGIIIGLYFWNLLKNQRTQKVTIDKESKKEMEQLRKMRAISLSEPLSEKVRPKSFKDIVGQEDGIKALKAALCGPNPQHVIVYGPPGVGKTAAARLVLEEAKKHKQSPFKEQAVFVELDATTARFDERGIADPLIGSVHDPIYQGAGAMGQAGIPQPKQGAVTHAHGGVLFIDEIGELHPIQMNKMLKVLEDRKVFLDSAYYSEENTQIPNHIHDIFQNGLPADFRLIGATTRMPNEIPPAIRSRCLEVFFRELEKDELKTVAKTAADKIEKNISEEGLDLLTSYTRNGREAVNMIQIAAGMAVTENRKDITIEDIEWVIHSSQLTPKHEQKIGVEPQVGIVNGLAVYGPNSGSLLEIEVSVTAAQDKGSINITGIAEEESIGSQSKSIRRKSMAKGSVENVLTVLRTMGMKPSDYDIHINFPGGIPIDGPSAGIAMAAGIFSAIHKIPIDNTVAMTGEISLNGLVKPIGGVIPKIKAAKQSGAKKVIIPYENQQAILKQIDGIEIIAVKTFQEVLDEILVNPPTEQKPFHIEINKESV
T1 sequence (P0A9M0 2-784): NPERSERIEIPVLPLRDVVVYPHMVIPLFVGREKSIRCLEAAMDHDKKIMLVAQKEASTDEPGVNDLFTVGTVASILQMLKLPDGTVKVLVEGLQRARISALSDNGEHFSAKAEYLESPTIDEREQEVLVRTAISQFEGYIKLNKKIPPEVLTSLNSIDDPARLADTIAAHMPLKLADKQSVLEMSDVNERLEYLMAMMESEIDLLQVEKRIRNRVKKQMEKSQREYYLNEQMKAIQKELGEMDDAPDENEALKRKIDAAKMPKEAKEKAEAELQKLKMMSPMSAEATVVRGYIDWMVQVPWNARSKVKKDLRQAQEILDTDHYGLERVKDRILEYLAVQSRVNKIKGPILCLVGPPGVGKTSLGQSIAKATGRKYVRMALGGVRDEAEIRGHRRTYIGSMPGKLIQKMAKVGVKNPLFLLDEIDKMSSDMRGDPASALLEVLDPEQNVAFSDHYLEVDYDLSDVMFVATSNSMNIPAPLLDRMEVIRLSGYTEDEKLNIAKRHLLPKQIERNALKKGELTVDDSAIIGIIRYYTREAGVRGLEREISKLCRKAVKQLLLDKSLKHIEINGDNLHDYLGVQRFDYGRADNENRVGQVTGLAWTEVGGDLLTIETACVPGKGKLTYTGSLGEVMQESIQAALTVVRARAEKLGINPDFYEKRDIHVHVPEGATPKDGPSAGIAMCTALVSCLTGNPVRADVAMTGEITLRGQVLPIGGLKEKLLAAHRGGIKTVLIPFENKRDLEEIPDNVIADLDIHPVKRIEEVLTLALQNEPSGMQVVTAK

One may read the IC50 as the point on the concentration scale where inhibition reaches its midpoint. Lower therefore signals greater potency in that assay. With `CC(C)C[C@H](NC(=O)[C@H](Cc1ccccc1)NC(=O)c1cnccn1)B(O)O` [bortezomib], the IC50 against EcLonA amounted to 50 nM; at BsLonBA, 1150 nM.

B1: P domain of BsLonBA (residues 347-552) (domain or fragment, Bacillus subtilis strain 168, UniProt P42425 347-552, looked up)
chain: GVEPQVGIVNGLAVYGPNSGSLLEIEVSVTAAQDKGSINITGIAEEESIGSQSKSIRRKSMAKGSVENVLTVLRTMGMKPSDYDIHINFPGGIPIDGPSAGIAMAAGIFSAIHKIPIDNTVAMTGEISLNGLVKPIGGVIPKIKAAKQSGAKKVIIPYENQQAILKQIDGIEIIAVKTFQEVLDEILVNPPTEQKPFHIEINKESV
modifications: bortezomib covalently bound to the Oγ of Ser445 via the boronate moiety (in the crystal only; added after the sizing column)
notes: LonBA protease (previously assigned as LonB) of Bacillus subtilis strain 168, protease (P) domain, residues Gly347-Val552 of the 552-residue enzyme; catalytic dyad Ser445 and Lys488; Dimer on the sizing column, hexamer in the crystal by crystallographic symmetry (two chains in the asymmetric unit); Modelled in the maps: residues 352-547 in chain A and 348-535 in chain B; also called protease …
In general, stoichiometry N refers to the number of molecules, sites or subunits per partner or assembly. Consider B1, for which the “stoichiometry N” value in series [1] turned out to be 2; in series [2], 6.
